Results on seven compounds are retold here after US20250255889A1, “METHODS FOR TREATMENT SELECTION FOR CHRONIC LYMPHOCYTIC LEUKEMIA (CLL)” (The Broad Institute, Inc., priority 2022, published 2025).

The subject of this assay is primary CLL samples (CD19+ and CD5+ cells). Nature of the assay: High-throughput dynamic BH3 profiling (HT-DBP): drug-induced apoptotic priming (delta priming), cytochrome c release after BH3 peptide. It counts as cell-based, human. In a few lines: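 Primary CLL cells (CD19+/CD5+) are treated with the agent or DMSO carrier, then briefly exposed to a fixed concentration of a promiscuous BH3 peptide such as BIM. Mitochondrial cytochrome c release serves as the priming surrogate. Delta priming is drug-treated priming minus DMSO-treated priming, run in high-throughput format.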

Setting [1] is: peptide PUMA 1 uM, feature loss_3p21.31.
[2] abbreviates: peptide MS1 2.5 uM, feature m-CLL.
Setting [3] is: peptide PUMA 1 uM, feature i-CLL.
Setting [4] is: peptide BAD 0.3 uM, feature ITIH2.
[5] abbreviates: peptide BAD 0.3 uM, feature i-CLL.
Setting [6] is: peptide BAD 0.3 uM, feature BIRC3.
The mark [7] stands for this setting: peptide BAD 0.3 uM, feature loss_9p21.3.
The mark [8] stands for this setting: peptide BAD 0.3 uM, feature loss_17q11.2.
Where [9] appears, read: peptide BIM 0.01 uM, feature BCOR.
Setting [10] is: peptide BIM 0.01 uM, feature n-CLL.
[11] abbreviates: peptide MS1 2.5 uM, feature SAMHD1.
Setting [12] is: peptide MS1 2.5 uM, feature BIRC3.
Where [13] appears, read: peptide MS1 2.5 uM, feature ITIH2.
[14] abbreviates: peptide MS1 2.5 uM, feature loss_9p21.3.
[15] abbreviates: peptide MS1 2.5 uM, feature loss_17q11.2.

Take `C=CC(=O)Nc1cc(Nc2nccc(-c3cn(C)c4ccccc34)n2)c(OC)cc1N(C)CCN(C)C` [Osimertinib]: the direction entry by setting is: (peptide BAD 0.3 uM, feature IGLV321_R110) “Resistant”; (peptide BAD 0.3 uM, feature MYD88) “Resistant”; (peptide BAD 0.3 uM, feature NOTCH1) “Resistant”; (peptide BAD 0.3 uM, feature RPS15) “Resistant”; (peptide BAD 0.3 uM, feature loss_6q) “Resistant”; (peptide BIM 0.01 uM, feature BIRC3) “Sensitive”. In addition, the direction result runs as follows: (peptide BIM 0.01 uM, feature EC-u2) “Sensitive”; (peptide BIM 0.01 uM, feature IGLV321_R110) “Resistant”; (peptide BIM 0.01 uM, feature NOTCH1) “Resistant”; (peptide BIM 0.01 uM, feature RPS15) “Resistant”; (peptide BIM 0.01 uM, feature loss_6q) “Resistant”; (peptide BIM 0.01 uM, feature loss_9p21.3) “Sensitive”. Also, the direction entry by setting is: (peptide BIM 0.01 uM, feature loss_17q11.2) “Sensitive”; (peptide MS1 2.5 uM, feature EC-i) “Resistant”; (peptide MS1 2.5 uM, feature IGLV321_R110) “Resistant”; (peptide MS1 2.5 uM, feature NOTCH1) “Resistant”; (peptide MS1 2.5 uM, feature RPS15) “Resistant”; (peptide MS1 2.5 uM, feature loss_6q) “Resistant”. For the same compound, the direction result by setting is: (peptide PUMA 1 uM, feature BIRC3) “Sensitive”; (peptide PUMA 1 uM, feature MYD88) “Resistant”; under setting [1], “Resistant”; (peptide PUMA 1 uM, feature loss_9p21.3) “Sensitive”; (peptide PUMA 1 uM, feature loss_17q11.2) “Sensitive”.

As to `O=C(CCCCCCNC(=O)c1cnc(N(c2ccccc2)c2ccccc2)nc1)NO` [Ricolinostat], the direction entry is, setting by setting: (peptide BAD 0.3 uM, feature CARD11) “Sensitive”; (peptide BIM 0.01 uM, feature i-CLL) “Resistant”; (peptide BIM 0.01 uM, feature loss_15q15.1b) “Resistant”; (peptide BIM 0.01 uM, feature loss_20p11.22) “Resistant”; (peptide MS1 2.5 uM, feature CNOT3) “Sensitive”; (peptide MS1 2.5 uM, feature loss_10q24.32) “Resistant”. The direction result by setting is: under setting [2], “Sensitive”; (peptide PUMA 1 uM, feature CARD11) “Sensitive”; (peptide PUMA 1 uM, feature gain_16p11.2) “Resistant”; under setting [3], “Resistant”; (peptide PUMA 1 uM, feature loss_1q21.3) “Resistant”; (peptide PUMA 1 uM, feature loss_2q31.1) “Resistant”. The direction result runs as follows: under setting [1], “Resistant”; (peptide PUMA 1 uM, feature loss_5p15.33) “Resistant”; (peptide PUMA 1 uM, feature loss_7p22.2) “Resistant”; (peptide PUMA 1 uM, feature loss_10p12.2) “Resistant”; (peptide PUMA 1 uM, feature loss_12p13.31a) “Resistant”; (peptide PUMA 1 uM, feature loss_14q32.12) “Resistant”. Further, the direction entry (peptide PUMA 1 uM, feature loss_15q15.1b) is “Resistant”; the direction result (peptide PUMA 1 uM, feature loss_16q22.1) is given as “Resistant”; the direction entry (peptide PUMA 1 uM, feature loss_17p13.3) is given as “Resistant”; the direction entry (peptide PUMA 1 uM, feature loss_20p11.22) is reported as “Resistant”; the direction entry (peptide PUMA 1 uM, feature m-CLL) was “Sensitive”.

As to `O=C(/C=C\n1cnc(-c2cc(C(F)(F)F)cc(C(F)(F)F)c2)n1)NNc1cnccn1` [Selinexor], the direction entry by setting is: (Feature MYD88) “Sensitive”; under setting [4], “Sensitive”; (peptide BIM 0.01 uM, feature MYD88) “Sensitive”; (peptide PUMA 1 uM, feature loss_7q36.1) “Sensitive”; (peptide PUMA 1 uM, feature loss_8p) “Sensitive”.

Turning to `CNC(=O)c1cc(Oc2ccc(NC(=O)Nc3ccc(Cl)c(C(F)(F)F)c3)cc2)ccn1` [Sorafenib], the direction result runs as follows: (peptide BAD 0.3 uM, feature GNB1) “Sensitive”; (peptide BAD 0.3 uM, feature RFX7) “Sensitive”; (peptide BAD 0.3 uM, feature ZMYM3) “Sensitive”; under setting [5], “Resistant”; (peptide BIM 0.01 uM, feature FBXW7) “Resistant”; (peptide BIM 0.01 uM, feature GNB1) “Sensitive”. The direction result is given as “Resistant” (peptide BIM 0.01 uM, feature RFX7); “Resistant” (peptide BIM 0.01 uM, feature ZMYM3); “Resistant” (peptide BIM 0.01 uM, feature gain_19p13.3); “Resistant” (peptide BIM 0.01 uM, feature loss_2q31.1); “Resistant” (peptide BIM 0.01 uM, feature loss_10p12.2); “Resistant” (peptide MS1 2.5 uM, feature RFX7). The direction entry runs as follows: (peptide MS1 2.5 uM, feature ZMYM3) “Resistant”; (peptide MS1 2.5 uM, feature gain_19p13.3) “Resistant”; (peptide MS1 2.5 uM, feature loss_2q31.1) “Resistant”; (peptide MS1 2.5 uM, feature loss_10p12.2) “Resistant”; (peptide MS1 2.5 uM, feature loss_10q24.2) “Resistant”; (peptide MS1 2.5 uM, feature loss_11q22.3) “Resistant”. Further, the direction entry under setting [2] is “Sensitive”; the direction entry (peptide MS1 2.5 uM, feature priortrt_Post) is reported as “Resistant”; the direction result (peptide PUMA 1 uM, feature FBXW7) was “Resistant”; the direction entry (peptide PUMA 1 uM, feature RFX7) is “Resistant”; the direction entry (peptide PUMA 1 uM, feature ZMYM3) is reported as “Resistant”.

For `O=C(CCCCCCC(=O)Nc1ccccc1)NO` [Vorinostat], the direction result reads like this: (Feature EC-m2) “Sensitive”; (Feature EC-m4) “Resistant”; (peptide BIM 0.01 uM, feature EC-m2) “Sensitive”; (peptide BIM 0.01 uM, feature EC-m4) “Resistant”; (peptide PUMA 1 uM, feature EC-m2) “Sensitive”; under setting [3], “Resistant”. Besides, for the setting “peptide PUMA 1 uM, feature loss_6q21”, the direction entry is on record as “Sensitive”.

As to `CN1CC[C@@H](c2c(O)cc(O)c3c(=O)cc(-c4ccc(C(F)(F)F)cc4Cl)oc23)[C@@H]1CO` [Voruciclib], the direction entry reads like this: under setting [6], “Sensitive”; under setting [4], “Sensitive”; under setting [5], “Sensitive”; under setting [7], “Sensitive”; under setting [8], “Sensitive”; under setting [9], “Resistant”. For the same compound, the direction entry under setting [10] is given as “Resistant”; the direction entry under setting [11] is “Resistant”; the direction result (peptide PUMA 1 uM, feature SF3B1) was “Resistant”; the direction result under setting [3] is “Sensitive”. Further, the dprim_pearson_corr by setting is: under setting [6], 0.3672; under setting [4], 0.3672; under setting [5], 0.4321; under setting [7], 0.3672; under setting [8], 0.3672; under setting [9], −0.4056. Also, the dprim_pearson_corr runs as follows: under setting [10], −0.3372; under setting [11], −0.3337.

On to fludarabine, for which the “response (apoptotic priming)” value (IGHV mutated CLLs, FDR<0.1, t-test) was “significant response”. In addition, the direction entry under setting [12] is listed as “Sensitive”, the direction result under setting [13] is “Sensitive”, the direction entry under setting [14] was “Sensitive” and the direction result under setting [15] was “Sensitive”. The dprim_pearson_corr is, setting by setting: under setting [12], 0.4431; under setting [13], 0.5036; under setting [14], 0.4431; under setting [15], 0.4431.
